# How the values were obtained:
# [1] = Ratio of bioavailability in rat blood and rat brain.; assay type: functional, organism-based
# V79 [2] = experiment: Verapamil index represents the ratio of net uptake in the presense of verapamil over control in V79 cell lines.; assay type: functional, cell-based; settings: Cricetulus griseus
# [3] = Ratio of bioavailability in rat adrenal and rat blood.; assay type: functional, organism-based
# [4] = Ratio of bioavailability in rat heart and rat blood.; assay type: functional, organism-based
# V79 [5] = experiment: Net accumulation of the [99mTc]Isonitrile complex was measured in V79 cell lines in the presence of Verapamil.; assay type: functional, cell-based; settings: Cricetulus griseus
# V79 [6] = experiment: Net accumulation of the [99mTc]Isonitrile complex was measured in 77A cell lines in the presence of Verapamil.; assay type: functional, cell-based
# V79 [7] = experiment: Verapamil index represents the ratio of net uptake in the presense of verapamil over control in 77A cell lines.; assay type: functional, cell-based
# Rattus norvegicus [8] = experiment: Biodistribution values represent the mean % id/organ for paired rats 30 min post intravenous injection complex in Bone; assay type: ADME, organism-based, Bone element; settings: in vivo, 0.5 h
# Rattus norvegicus [9] = experiment: Biodistribution values represent the mean % id/organ for paired rats 30 min post intravenous injection complex in Brain; assay type: ADME, organism-based; settings: in vivo, 0.5 h
# Rattus norvegicus [10] = experiment: Biodistribution values represent the mean % id/organ for paired rats 30 min post intravenous injection complex in Fat; assay type: ADME, organism-based; settings: in vivo, 0.5 h
# Rattus norvegicus [11] = experiment: Biodistribution values represent the mean % id/organ for paired rats 30 min post intravenous injection complex in Lungs; assay type: ADME, organism-based, Lung; settings: in vivo, 0.5 h
# Rattus norvegicus [12] = experiment: Biodistribution values represent the mean % id/organ for paired rats 30 min post intravenous injection complex in Spleen; assay type: ADME, organism-based; settings: in vivo, 0.5 h
# Rattus norvegicus [13] = experiment: Biodistribution values represent the mean % id/organ for paired rats 30 min post intravenous injection complex in Skin; assay type: ADME, organism-based; settings: in vivo, 0.5 h
# Rattus norvegicus [14] = experiment: Biodistribution values represent the mean % id/organ for paired rats 30 min post intravenous injection complex in Kidney; assay type: ADME, organism-based; settings: in vivo, 0.5 h
# Rattus norvegicus [15] = experiment: Biodistribution values represent the mean % id/organ for paired rats 30 min post intravenous injection complex in GI; assay type: ADME, organism-based; settings: in vivo, 0.5 h
# Rattus norvegicus [16] = experiment: Biodistribution values represent the mean % id/organ for paired rats 30 min post intravenous injection complex in Heart; assay type: ADME, organism-based; settings: in vivo, 0.5 h
# Rattus norvegicus [17] = experiment: Biodistribution values represent the mean % id/organ for paired rats 30 min post intravenous injection complex in Adrenal; assay type: ADME, organism-based; settings: in vivo, 0.5 h
# Rattus norvegicus [18] = experiment: Biodistribution values represent the mean % id/organ for paired rats 30 min post intravenous injection complex in Liver; assay type: ADME, organism-based; settings: in vivo, 0.5 h
# Rattus norvegicus [19] = experiment: Biodistribution values represent the mean % id/organ for paired rats 30 min post intravenous injection complex in Blood; assay type: ADME, organism-based; settings: in vivo, 0.5 h
# Rattus norvegicus [20] = experiment: Biodistribution values represent the mean % id/organ for paired rats 30 min post intravenous injection complex in Muscles; assay type: ADME, organism-based, Muscle tissue; settings: in vivo, 0.5 h
Substance,Ratio [1],Ratio [3],Ratio [4],Net accumulation (V79 [6]; Cricetulus griseus),Verapamil index (V79 [7]; Cricetulus griseus),also measured
Hexakis[3-(hydroxymethyl)benzeneisonitrile]technetium Complex,27,6.2,0.7,–,–,Verapamil index (V79 [2]): 2.38; Net accumulation (V79 [5]): 257
"Hexakis[2-(3,4-Dimethoxyphenyl)ethaneisonitrile]technetium Complex",23,4.1,0.4,–,–,Net accumulation (V79 [6]): 146; Verapamil index (V79 [7]): 3.3
Hexakis[2-(4-Methoxyphenyl)ethaneisonitrile]technetium Complex,26,13,3.5,494,3.09,–
"Hexakis[3,4-Dimethoxy-alpha-tolueneisonitrile]technetium Complex",19,7.9,0.6,362,1.53,–
"Hexakis[3,5-Dimethoxy-alpha-tolueneisonitrile]technetium Complex",28,3.1,0.4,315,2.19,–
"Hexakis[2-(3,4,5-Trimethoxyphenyl)ethaneisonitrile]technetium Complex",5,54,9,101,1.07,–
Hexakis-(2-methoxyisobutylisonitrile)Technetium (99mTc-MIBI) [listing 1 of 2 here],0.7,158,120,102,32.9,Verapamil index (V79 [2]): 3.91; Net accumulation (V79 [5]): 70.4
"Hexakis[3,4-(Methylenedioxy)-alpha-tolueneisonitrile]technetium Complex",36,6.9,0.6,–,–,Verapamil index (V79 [2]): 1.11; Net accumulation (V79 [5]): 287
Hexakis[3-Acetamidobenzeneisonitrile]technetium Complex,15,8.8,0.7,147,0.77,–
Hexakis[4-Methoxy-alpha-tolueneisonitrile]technetium Complex,30,2.5,0.3,359,2.6,–
"Hexakis[3,4-Dimethoxybenzeneisonitrile]technetium Complex",26,7.3,0.7,397,3.52,–
"Hexakis[3,4,5-Trimethoxy-alpha-tolueneisonitrile]technetium Complex",6.7,24,5.5,57,0.81,–
Hexakis[4-Cyanobenzeneisonitrile]technetium Complex,31,1.2,0.3,161,1.61,–
Hexakis[3-Nitrobenzeneisonitrile]technetium Complex,31,0.6,0.4,–,–,Verapamil index (V79 [2]): 0.99; Net accumulation (V79 [5]): 14
Hexakis[5-Methoxy-2-methyl-4-nitrobenzeneisonitrile]technetium Complex,28,1.8,0.4,–,–,Verapamil index (V79 [2]): 0.87; Net accumulation (V79 [5]): 31.7
Hexakis[4-Acetylbenzeneisonitrile]technetium Complex,17,22,0.6,826,1.73,–
Hexakis[2-Methoxy-5-nitrobenzeneisonitrile]technetium Complex,38,0.9,0.5,–,–,Verapamil index (V79 [2]): 0.96; Net accumulation (V79 [5]): 58.3
Hexakis[4-Nitrobenzeneisonitrile]technetium Complex,39,0.6,0.3,29.1,1.15,–
Hexakis-(2-methoxyisobutylisonitrile)Technetium (99mTc-MIBI) [listing 2 of 2 here],–,–,–,–,–,ID/organ (Rattus norvegicus [8]): 11%; ID/organ (Rattus norvegicus [9]): 0.05%; ID/organ (Rattus norvegicus [10]): 0.73%; ID/organ (Rattus norvegicus [11]): 0.71%; ID/organ (Rattus norvegicus [12]): 0.6%; ID/organ (Rattus norvegicus [13]): 3.95%; ID/organ (Rattus norvegicus [14]): 6.26%; ID/organ (Rattus norvegicus [15]): 30.3%; ID/organ (Rattus norvegicus [16]): 2.36%; ID/organ (Rattus norvegicus [17]): 0.16%; ID/organ (Rattus norvegicus [18]): 10.8%; ID/organ (Rattus norvegicus [19]): 0.33%; ID/organ (Rattus norvegicus [20]): 18.5%
"Hexakis[3,5-Dimethoxybenzeneisonitrile]technetium Complex",7.5,1.7,1,15.3,1.84,–
"Hexakis[3,4-(Methylenedioxy)benzeneisonitrile]technetium Complex",9.3,14,0.4,93.9,1.87,–
